Results published in PubChem BioAssay (NCI).
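Results reflect a 48-hour exposure of cells in 96-well plates to compound at five concentrations. Definition used: TGI = concentration required for complete inhibition of growth.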

Key:
Assay in all cases: NCI tumour cell line growth inhibition, 48 h
786-0 renal = test system: 786-0 renal
A549 NSCLC = test system: A549 NSCLC
ACHN renal = test system: ACHN renal
BT-549 breast = test system: BT-549 breast
CAKI-1 renal = test system: CAKI-1 renal
CCRF-CEM leukemia = test system: CCRF-CEM leukemia
COLO 205 colon = test system: COLO 205 colon
DU-145 prostate = test system: DU-145 prostate
EKVX NSCLC = test system: EKVX NSCLC
HCC-2998 colon = test system: HCC-2998 colon
HCT-116 colon = test system: HCT-116 colon
HCT-15 colon = test system: HCT-15 colon
HL-60(TB) leukemia = test system: HL-60(TB) leukemia
HOP-62 NSCLC = test system: HOP-62 NSCLC
HOP-92 NSCLC = test system: HOP-92 NSCLC
HS 578T breast = test system: HS 578T breast
HT29 colon = test system: HT29 colon
IGROV1 ovarian = test system: IGROV1 ovarian
K-562 leukemia = test system: K-562 leukemia
KM12 colon = test system: KM12 colon
LOX IMVI melanoma = test system: LOX IMVI melanoma
M14 melanoma = test system: M14 melanoma
MALME-3M melanoma = test system: MALME-3M melanoma
MCF7 breast = test system: MCF7 breast
MDA-MB-231 breast = test system: MDA-MB-231 breast
MDA-MB-435 = test system: MDA-MB-435
MDA-N = test system: MDA-N
MOLT-4 leukemia = test system: MOLT-4 leukemia
NCI-H226 lung = test system: NCI-H226 lung
NCI-H23 lung = test system: NCI-H23 lung
NCI-H460 lung = test system: NCI-H460 lung
NCI-H522 lung = test system: NCI-H522 lung
NCI/ADR-RES ovarian = test system: NCI/ADR-RES ovarian
OVCAR-3 ovarian = test system: OVCAR-3 ovarian
OVCAR-4 ovarian = test system: OVCAR-4 ovarian
OVCAR-5 ovarian = test system: OVCAR-5 ovarian
OVCAR-8 ovarian = test system: OVCAR-8 ovarian
PC-3 prostate = test system: PC-3 prostate
RPMI-8226 leukemia = test system: RPMI-8226 leukemia
RXF 393 renal = test system: RXF 393 renal
SF-268 CNS = test system: SF-268 CNS
SF-295 CNS = test system: SF-295 CNS
SF-539 CNS = test system: SF-539 CNS
SK-MEL-2 melanoma = test system: SK-MEL-2 melanoma
SK-MEL-28 melanoma = test system: SK-MEL-28 melanoma
SK-MEL-5 melanoma = test system: SK-MEL-5 melanoma
SK-OV-3 ovarian = test system: SK-OV-3 ovarian
SN12C renal = test system: SN12C renal
SNB-19 CNS = test system: SNB-19 CNS
SNB-75 CNS = test system: SNB-75 CNS
SR leukemia = test system: SR leukemia
SW-620 colon = test system: SW-620 colon
T-47D breast = test system: T-47D breast
TK-10 renal = test system: TK-10 renal
U251 CNS = test system: U251 CNS
UACC-257 melanoma = test system: UACC-257 melanoma
UACC-62 melanoma = test system: UACC-62 melanoma
UO-31 renal = test system: UO-31 renal

Measured: TGI

Cc1ccc(Nc2nc3ccccc3c(=O)n2N)cc1
> 100 µM: all assays above

C[C@]12CC[C@H]3[C@@H](CCC4=C[C@@H](N5CCCC5)CC[C@@]43C)[C@@H]1C/C(=C\c1ccncc1)[C@@H]2O
26.2 µM: HCT-15 colon
5.66 µM: M14 melanoma
39.5 µM: DU-145 prostate
38.9 µM: BT-549 breast
30.9 µM: SK-MEL-2 melanoma
49.6 µM: EKVX NSCLC
34.2 µM: NCI-H23 lung
53.6 µM: OVCAR-5 ovarian
28.5 µM: RPMI-8226 leukemia | SN12C renal | U251 CNS
20.7 µM: COLO 205 colon
24.9 µM: MDA-N
27.8 µM: MALME-3M melanoma
10.8 µM: 786-0 renal
21.4 µM: LOX IMVI melanoma
18.7 µM: UACC-257 melanoma
26.1 µM: MCF7 breast
29.8 µM: MDA-MB-231 breast
64.6 µM: IGROV1 ovarian
29.9 µM: UACC-62 melanoma
24.2 µM: SK-MEL-28 melanoma
18 µM: HCC-2998 colon
36.1 µM: HS 578T breast
31.2 µM: HOP-92 NSCLC
26.4 µM: NCI-H460 lung
25.2 µM: SK-MEL-5 melanoma
21.1 µM: HCT-116 colon
65.8 µM: T-47D breast
30.8 µM: PC-3 prostate
61.7 µM: SK-OV-3 ovarian
30.1 µM: SNB-19 CNS
11 µM: HT29 colon
43.6 µM: SW-620 colon
18.3 µM: HOP-62 NSCLC
33.7 µM: NCI-H226 lung
41.2 µM: OVCAR-3 ovarian
42.2 µM: SNB-75 CNS
27.1 µM: MDA-MB-435
40.6 µM: ACHN renal
43.9 µM: NCI/ADR-RES ovarian
17.6 µM: SF-295 CNS
29.1 µM: A549 NSCLC
18.4 µM: UO-31 renal
41.8 µM: HL-60(TB) leukemia | SF-268 CNS
75.8 µM: OVCAR-4 ovarian
63.5 µM: OVCAR-8 ovarian
24.1 µM: NCI-H522 lung
26.5 µM: TK-10 renal
28.1 µM: SF-539 CNS
19 µM: RXF 393 renal
31 µM: KM12 colon
12.8 µM: SR leukemia
> 100 µM: all other assays above

COc1ccc([C@H]2CC(=O)C[C@H](c3ccc(OC)cc3OC)C23C(=O)c2ccccc2C3=O)c(OC)c1
> 100 µM: all assays above
